“Also recorded” adds a separate entry of the source.
Tests used:
KPC pancreatic tumors = assay: Monitoring of KPC pancreatic tumor volume by 3D high resolution ultrasonography; assay type: in vivo, mouse; settings: gemcitabine 100 mg/kg twice weekly, Compound A 40 ug/kg/day, or both
Source text: For survival studies, mice were enrolled following the detection of 5-10 mm diameter tumor by ultrasound. Tumors were quantified by 3D ultrasound twice weekly until endpoint. High resolution ultrasound (US) imaging of normal and diseased mouse pancreas using the Vevo 770 System with a 35 MHz RMV scanhead (Visual Sonics, Inc.). 3D images were produced using the 3D motor arm to collect serial images at 0.25 mm intervals through the thickness of the tumor. Tumors were outlined on each 2D image and reconstructed to quantify the 3D volume using the integrated Vevo 770 software package.

[1] = test system: transplanted pancreatic tumors; assay: Proliferation of transplanted tumors (phospho-histone H3 immunohistochemistry); assay type: in vivo, mouse; settings: gemcitabine Q3Dx4
Description: (§1) 1×10^6 cells suspended in 100 μL of PBS were injected subcutaneously into the flanks of nude mice (xenografts) or into immunocompetent mice (syngeneic). For syngeneic models, recipient mice were descended from mice used to generate the KPC PDA cell lines. Orthotopic tumors with MiaPaca2 were generated as previously described (Niedergethmann et al., Br J Cancer 97, 1432 (Nov. 19, 2007)). Long (L) and short (S) axes of each tumor were measured with calipers (for subcutaneous tumors) or ultrasound (for orthotopic tumors). Tumor volume (V) was calculated: V=(L×S^2)/2. Tumor volumes were normalized relative to the volume at the start of drug treatment for subcutaneous tumors. […] Tumor images were acquired using a pediatric ultrasound machine. This machine was not equipped for 3D reconstruction, so the same formula V=(L×S^2)/2 was used to estimate the tumor volumes and changes. […] When appropriate, a fifth dose was given on the final day four hours prior to necropsy for pharmacological analyses.
(§2) Tissues were fixed in 10% formalin solution for 24 hours and transferred to 70% ethanol. Tissues were paraffin embedded, sectioned and rehydrated. For CD31 IHC, sections were unmasked in 10 mM EDTA, pH 8.0 in a pressure cooker. For all other antibodies, sections were unmasked in 10 mM citric acid in a pressure cooker. Endogenous peroxidases were quenched in 3% H2O2/PBS for 20 minutes. […]

KPC tumors [2] = assay: Proliferation of KPC tumors (phospho-histone H3 immunohistochemistry); assay type: in vivo, mouse; settings: 4 days or 8-12 days of treatment
Description: (§3) Tissues were fixed in 10% formalin solution for 24 hours and transferred to 70% ethanol. Tissues were paraffin embedded, sectioned and rehydrated. For CD31 IHC, sections were unmasked in 10 mM EDTA, pH 8.0 in a pressure cooker. For all other antibodies, sections were unmasked in 10 mM citric acid in a pressure cooker. Endogenous peroxidases were quenched in 3% H2O2/PBS for 20 minutes. Remaining steps were carried out with Vectastain ABC kits appropriate to the species of primary antibody (Vector Labs, Burlingame, Calif.) with the following modification: blocking serum was supplemented with Protein Blocking Agent (Immunotech/BeckmanCoulter, Fullerton, Calif.) diluted 1:50. Antigens were developed with DAB Peroxidase Substrate (Vector Labs). The following antibody dilutions were used: Phospho-Histone H3, 1:100 (#9701, Cell Signaling Technology); Cleaved Caspase 3, 1:100 (#9661, Cell Signaling Technology); CD31, 1:75 (SC-1506). Slides were counterstained with hematoxylin.

KPC tumors [3] = assay: Histology (H&E) of treated KPC tumors; assay type: in vivo, mouse; settings: KPC tumors after 8-12 days of treatment
[4] = Determination of dFdCTP in tissues by HPLC; assay type: in vivo, mouse; settings: 50 or 100 mg/kg gemcitabine i.p., 4 h
Description: Tissues were rapidly dissected and snap frozen in liquid nitrogen. Specimens were maintained at −80° C. until nucleotide extraction. Specimens were ground under liquid nitrogen with a mortar and pestle. The powdered contents were suspended in 0.4N perchloric acid and sonicated in an ice bath. Solids were removed by centrifugation, the pellet was washed with perchloric acid, and the supernatants were combined. Following neutralization with KOH and removal of KClO4 by centrifugation, a portion of the supernatant was analyzed by high-pressure liquid chromatography. The amount of gemcitabine triphosphate was normalized to the ATP level determined in the same sample analysis. Samples with inadequate concentrations of ATP were excluded from analysis.

[5] = test system: pancreatic tumors in KPC mice; assay: Survival study of tumor-bearing KPC mice; assay type: in vivo, mouse; settings: KPC mice enrolled with 5-10 mm tumors
Description: vehicles: 20 μL/g 0.85% NaCl+8 μL/g 5% HPBCD;
Compound A: 40 mg/kg Compound A+20 μL/g 0.85% NaCl;
For survival studies, mice were enrolled following the detection of 5-10 mm diameter tumor by ultrasound. Tumors were quantified by 3D ultrasound twice weekly until endpoint.

[6] = test system: pancreatic ductal adenocarcinoma; settings: cited from earlier work
[7] = test system: transplanted pancreatic tumors; assay: Growth of subcutaneous and orthotopic transplanted pancreatic tumors; assay type: in vivo; settings: transplantation models of human or mouse origin; gemcitabine Q3Dx4, 12 days
Description: The human pancreatic cancer cell line AsPc1 was cultured according to instructions. Mouse pancreatic cancer cell lines […], […] and DT8082 were isolated from tumors arising in KPC mice using a modification of the protocol described by Schreiber et al., Gastroenterology (20004) 127:250. Briefly, a 3 mm^3 fragment of PDA was excised, washed in 10 mL of cold PBS, and then finely diced with sterile razors. Cells were incubated in 10 mL of collagenase solution at 37° C. for 30-45 minutes with mixing (1 mg/mL collagenase V in DMEM/F12). Cells were spun (100 rpm, 5 min.) and resuspended in 0.05% Trypsin/EDTA for 5 min. at 37° C., and then quenched with DMEM supplemented with 10% fetal calf serum and 96 μM CaCl2. Cells were washed 3 times with DMEM/F12 medium and plated in a 6-well Biocoat dish (Becton Dickenson) in the ductal cell medium. After 3-4 passages, cells were transferred to standard plastic tissue culture dishes and grown in DMEM+10% FCS. 1×10^6 cells suspended in 100 μL of PBS were injected subcutaneously into the flanks of nude mice (xenografts) or into immunocompetent mice (syngeneic). For syngeneic models, recipient mice were descended from mice used to generate the KPC PDA cell lines. […] Long (L) and short (S) axes of each tumor were measured with calipers (for subcutaneous tumors) or ultrasound (for orthotopic tumors). Tumor volume (V) was calculated: V=(L×S^2)/2. […]

KPC tumors [8] = assay: Apoptosis in KPC tumors (Cleaved Caspase 3 immunohistochemistry); assay type: in vivo, mouse
Description: as §3

[9] = 19F NMR of fluorinated gemcitabine metabolites in tissue; assay type: in vivo, mouse; settings: six hours after gemcitabine dosage; pilot experiments
Description: Mice were treated with indicated regiments for 12 days. […] Tissues were rapidly dissected and snap frozen in liquid nitrogen. Tissue specimens were maintained at −80° C. until subjected to nucleotide extraction. Samples were homogenized in a Qiagen TissueLyser with a 5 mm ball bearing for 2×6 minutes at 25 KHz, in the presence of 4 volumes of ice-cold acetonitrile (μL acetonitrile=4×[…] of tissue). An equal volume of water was added and then the sample was spun at 14,000 rpm for 10 minutes at 4° C. Supernatant was freeze dried, resuspended in 600 μL of D2O and transferred to a 5 mm standard NMR tube (Wilmad) for ^19F NMR analysis on a Bruker 600 MHZ (14.1T) Avance NMR spectrometer using a QNP probe. Acquisition parameters included a 1D pulse sequence of ^19F observation and inverse-gated ^1H decoupling, spectral sweep width of 177 ppm (100000 Hz), 4096 scans and 1.65 sec of repetition time. Total acquisition time for each sample was about 1 hr 55 min. Trichloro-fluoro-methane was used for ^19F NMR chemical shift calibrations. A broad hump observed in the baseline of ^19F NMR spectra was removed by application of Linear-prediction (LP) back projection to the time domain data by using 2000 (number of LP) coefficients and 128 back-prediction points prior to Fourier transformation and phase correction. […]

[10] = test system: transplanted pancreatic tumors; assay: Apoptosis in transplanted tumors (cleaved caspase 3 immunohistochemistry); assay type: in vivo, mouse; settings: gemcitabine Q3Dx4
Description: as §1, §2

[11] = Gemcitabine (dFdC) in blood of normal mice by HPLC; assay type: in vivo, mouse
[12] = Vascular labeling and drug diffusion: doxorubicin delivery by confocal microscopy; assay type: in vivo, mouse; settings: in comparison to control tissues and transplanted tumors; i.v. with lectin
Description: To assess the functional vasculature, biotin-conjugated Lycopersicon esculentum lectin (B1175-1 mg, Vector Laboratories) was resuspended in 425 μL PBS and mixed with 75 μL of 1 mg/mL Streptavidin-AlexaFluor 633 (S21375, Molecular Probes) (in sterile PBS). Prior to use, the lectin-avidin mixture was centrifuged 14,000 k on a microfuge for 10 minutes to remove any particulate. Fifteen minutes prior to euthanasia, 100 μl (0.4 mg total) of the conjugated lectin was administered as a slow intravenous infusion over 5 minutes, and the hemodynamics monitored closely to ensure that it was tolerated. For doxorubicin experiments, five minutes prior to euthanasia mice were also infused with a 20 mg/kg doxorubicin solution (D-1515.10 mg, in sterile saline, Sigma) over one minute.
While under terminal anesthesia, mice were perfused with 4% paraformaldehyde in PBS, pH 7.4. Perfused tissues were harvested, fixed overnight in 4% paraformaldehyde in PBS, pH 7.4 and transferred to 70% ethanol. Tissues were embedded in paraffin, sectioned, rehydrated, and counterstained with DAPI. The lectin labeling experiments were reproduced independently in a second laboratory (SRH, KI).
Mice were infused with 30 ml of 4% PFA pH 7.4 using a Harvard Apparatus PhD 2000 syringe pump at a rate of […]. […] Doxorubicin fluorescence was excited with a 488 nm laser, and emission was detected in a range from 520-620 nm. […]

[13] = Gd-DTPA delivery by DCE-MRI; assay type: in vivo, mouse; settings: 0.1 mmol/kg Gd-DTPA
Description: Magnetic resonance imaging experiments were carried out on a Varian MRI system (Varian, Inc, Palo Alto, Calif., USA) equipped with a 9.4T horizontal bore cryo-cooled superconducting magnet of 210 mm bore and a gradient set of strength 40 G/cm, 120 μsec risetime and internal diameter 120 mm. The imaging probe used was a Varian Millipede of 40 mm internal diameter. Mice were anaesthetized with Hypnorm/Hypnovel. Anatomical images were obtained using coronal T2-weighted fast spin-echo (repetition time TR=2000 ms, effective echo time TE=25 ms, echo train length 8 echoes, 512×512 points, field of view 80×80 mm, slice thickness/gap 1.5/0.5 mm, 12-15 slices) with chemical shift-selective fat suppression and respiratory gating. All other images were matched to the slice positions and field of view of the anatomical images. […] DCE-MRI data were analyzed in software custom-written in MATLAB 7.4 (The Mathworks, Inc, Natick, Mass., USA) using the model of Tofts and Kermode to evaluate the pharmacokinetic parameters Ktrans and ve, and additionally calculating the area under the [gadolinium]-time curve over the first 60 seconds post-injection (IAUGC60), as recommended by a panel of experts for vascular-related studies in oncology.

In the case of `Nc1ccn([C@@H]2O[C@H](CO)[C@@H](O)C2(F)F)c(=O)n1` [gemcitabine, 2′,2′-difluorodeoxycytidine], the “objective (ultrasonographic) response, responding mice/treated mice” value (KPC pancreatic tumors) is reported as 2/10, the “proliferative rate of transplanted tumors” value [1] is reported as “significantly lower proliferative rates” and the “proliferation of KPC tumors” value (KPC tumors [2]) is reported as “significantly diminished; also recorded: decreased”. For the same molecule, the “tumor stroma / histological pattern” value (KPC tumors [3]) was “dense stromal matrix”, the “dFdCTP in KPC tumors” value [4] was “absent” and the “dFdCTP in transplanted tumor tissues and control tissues” value [4] was “present”. For the same molecule, the “effect on survival of KPC mice” value [5] was “Neither gemcitabine nor Compound A treatment had an effect on the survival”, the extension of survival ([6]; pancreatic ductal adenocarcinoma, standard-of-care therapy) was “a few weeks” and the “patients with objective radiographic response at the primary tumor site” value ([6]; patients, Tempero et al. 2003) was 5-10%. The “tumor growth of transplanted tumors” value [7] was “substantial inhibition of tumor growth”, the “apoptosis in KPC tumors” value (KPC tumors [8]) was “unchanged in most KPC tumors” and the “19F signals in PDA and control tissues” value [9] was “absent”. The “apoptosis in transplanted tumors” value [10] was “no significant changes in apoptosis” and the “half-life of gemcitabine in circulating blood” value [11] was “short half-life”.
In the case of `COc1cccc2c1C(=O)c1c(O)c3c(c(O)c1C2=O)C[C@@](O)(C(=O)CO)C[C@@H]3O[C@H]1C[C@H](N)[C@H](O)[C@H](C)O1` [doxorubicin], the “doxorubicin delivery to KPC pancreatic tumors” value [12] is reported as “marked decrease in doxorubicin delivery”.
For `O=C([O-])CN(CCN(CC(=O)[O-])CC(=O)O)CCN(CC(=O)[O-])CC(=O)O.[Gd+3]` [Gd-DTPA, gadolinium-diethyltriaminepentaacetic acid], the “Gd-DTPA enhancement within KPC tumors” value [13] was “little or no enhancement within the tumor body”.

Reference: patent US20120020876A1, “HEDGEHOG PATHWAY INHIBITORS” (priority 2009, published 2012)
